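1) Cells in 96-well plates. 2) Compound, 48 h, 5 concentrations. 3) Linear interpolation between surrounding doses. 4) Unreached endpoint = highest concentration. TGI: concentration producing complete growth inhibition.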
Assays:
Experiment in all cases: growth of human tumour cells (NCI), 48 h
[1] = tested on: MDA-N
[2] = tested on: NCI-H460 lung
[3] = tested on: HS 578T breast
[4] = tested on: UACC-257 melanoma
[5] = tested on: OVCAR-4 ovarian
[6] = tested on: SNB-19 CNS
[7] = tested on: MOLT-4 leukemia
[8] = tested on: NCI/ADR-RES ovarian
[9] = tested on: RPMI-8226 leukemia
[10] = tested on: MDA-MB-231 breast
[11] = tested on: 786-0 renal
[12] = tested on: NCI-H23 lung
[13] = tested on: U251 CNS
[14] = tested on: ACHN renal
[15] = tested on: LOX IMVI melanoma
[16] = tested on: HCC-2998 colon
[17] = tested on: HCT-15 colon
[18] = tested on: SF-268 CNS
[19] = tested on: EKVX NSCLC
[20] = tested on: MALME-3M melanoma
[21] = tested on: OVCAR-5 ovarian
[22] = tested on: PC-3 prostate
[23] = tested on: SK-MEL-5 melanoma
[24] = tested on: SK-OV-3 ovarian
[25] = tested on: COLO 205 colon
[26] = tested on: NCI-H226 lung
[27] = tested on: DU-145 prostate
[28] = tested on: SN12C renal
[29] = tested on: HCT-116 colon
[30] = tested on: SK-MEL-28 melanoma
[31] = tested on: SF-295 CNS
[32] = tested on: IGROV1 ovarian
[33] = tested on: SF-539 CNS
[34] = tested on: TK-10 renal
[35] = tested on: A498 renal
[36] = tested on: SK-MEL-2 melanoma
[37] = tested on: SNB-75 CNS
[38] = tested on: HOP-92 NSCLC
[39] = tested on: HT29 colon
[40] = tested on: CCRF-CEM leukemia
[41] = tested on: HOP-62 NSCLC
[42] = tested on: NCI-H522 lung
[43] = tested on: UO-31 renal
[44] = tested on: A549 NSCLC
[45] = tested on: SW-620 colon
[46] = tested on: SR leukemia
[47] = tested on: K-562 leukemia
[48] = tested on: CAKI-1 renal
[49] = tested on: T-47D breast
[50] = tested on: RXF 393 renal
[51] = tested on: UACC-62 melanoma
[52] = tested on: M14 melanoma
[53] = tested on: KM12 colon
[54] = tested on: OVCAR-3 ovarian
[55] = tested on: MCF7 breast
[56] = tested on: MDA-MB-435
[57] = tested on: OVCAR-8 ovarian
[58] = tested on: BT-549 breast

CC(C)(C)OC(=O)NC(Cc1ccc(OC(C)(C)C)cc1)C(=O)N[C@H]1CCC[C@H]1C(=O)NC(Cc1ccccc1)C(=O)N1CCCC1C(N)=O (stereo partly specified)
TGI [1]: > 100 µM | TGI [2]: > 100 µM | TGI [3]: > 100 µM | TGI [4]: > 100 µM | TGI [5]: > 100 µM | TGI [6]: > 100 µM | TGI [7]: > 100 µM | TGI [8]: > 100 µM | TGI [9]: > 100 µM | TGI [10]: > 100 µM | TGI [11]: > 100 µM | TGI [12]: > 100 µM | TGI [13]: > 100 µM | TGI [14]: > 100 µM | TGI [15]: > 100 µM | TGI [16]: > 100 µM | TGI [17]: > 100 µM | TGI [18]: > 100 µM | TGI [19]: > 100 µM | TGI [20]: > 100 µM | TGI [21]: > 100 µM | TGI [22]: > 100 µM | TGI [23]: > 100 µM | TGI [24]: > 100 µM | TGI [25]: > 100 µM | TGI [26]: > 100 µM | TGI [27]: > 100 µM | TGI [28]: > 100 µM | TGI [29]: > 100 µM | TGI [30]: > 100 µM | TGI [31]: > 100 µM | TGI [32]: > 100 µM | TGI [33]: > 100 µM | TGI [34]: > 100 µM | TGI [35]: > 100 µM | TGI [36]: > 100 µM | TGI [37]: > 100 µM | TGI [38]: > 100 µM | TGI [39]: > 100 µM | TGI [40]: > 100 µM | TGI [41]: > 100 µM | TGI [42]: > 100 µM | TGI [43]: > 100 µM | TGI [44]: > 100 µM | TGI [45]: > 100 µM | TGI [46]: > 100 µM | TGI [47]: > 100 µM | TGI [48]: > 100 µM | TGI [49]: > 100 µM | TGI [50]: > 100 µM | TGI [51]: > 100 µM | TGI [52]: > 100 µM | TGI [53]: > 100 µM | TGI [54]: > 100 µM | TGI [55]: > 100 µM | TGI [56]: > 100 µM | TGI [57]: > 100 µM

Oc1cc(O)cc(-c2nc3cc(F)ccc3s2)c1
TGI [1]: > 100 µM | TGI [2]: 54 µM | TGI [4]: 45.6 µM | TGI [5]: 63.7 µM | TGI [58]: 53.2 µM | TGI [6]: 97.2 µM | TGI [8]: > 100 µM | TGI [9]: 50.2 µM | TGI [10]: 55.8 µM | TGI [11]: 47.1 µM | TGI [12]: 94.5 µM | TGI [13]: 60.5 µM | TGI [14]: 81.3 µM | TGI [15]: 39.3 µM | TGI [17]: 61.6 µM | TGI [18]: 50.8 µM | TGI [20]: > 100 µM | TGI [21]: 57.2 µM | TGI [22]: 83.6 µM | TGI [23]: 37.1 µM | TGI [24]: 70.4 µM | TGI [25]: 40 µM | TGI [26]: 64.2 µM | TGI [27]: > 100 µM | TGI [28]: 76.4 µM | TGI [29]: 65.5 µM | TGI [30]: 77 µM | TGI [31]: 36 µM | TGI [32]: 70.9 µM | TGI [33]: 68.3 µM | TGI [34]: 76.5 µM | TGI [35]: 47.1 µM | TGI [36]: 45.1 µM | TGI [39]: 44.8 µM | TGI [40]: > 100 µM | TGI [42]: 36.9 µM | TGI [43]: 76.6 µM | TGI [44]: > 100 µM | TGI [45]: > 100 µM | TGI [48]: 53.8 µM | TGI [49]: 51.4 µM | TGI [50]: 72.4 µM | TGI [51]: 40.7 µM | TGI [52]: 50.1 µM | TGI [53]: 52.1 µM | TGI [54]: 63.6 µM | TGI [55]: 64.6 µM | TGI [56]: > 100 µM | TGI [57]: 64.8 µM

Source: PubChem BioAssay (NCI)
